Source: patent US10694724B2, “Transgenic mouse for the assessment of thyroid hormone (TH) action” (MAGYAR TUDOMÁNYOS AKADÉMIA KÍSÉRLETI ORVOSTUDOMÁNYI KUTATÓ …, priority 2014, dated 2020)
Entries after “also recorded” stand apart in the source; their conditions may differ.

How the values were obtained:
[1] = test system: thyroid hormone receptor isoform specific action (TRβ dominant liver, TRα dominant heart; Luciferase reporter); test: Testing TR isoform specific agonists: Luciferase activity in liver and heart of line #4 with decreased endogenous thyroid hormone; assay type: in vivo, mouse
Description: FIG. 7. The transgenic mouse model is capable to detect thyroid hormone receptor isoform specific T3 actions. […] Mean±SEM (n=5) ** p<0.01 by t test.
We decreased the endogenous thyroid hormone levels in line #4 by administering methimazole and perchlorate (0.1% methimazole, 0.5% perchlorate) in the drinking water followed by the i.p. injection of 1.53 nM/g BW of GC-24, a TRβ specific agonist (35). Luciferase activity assay was performed using our established protocol (34) modified for tissue samples, that included treatment of mouse tissue with liquid nitrogen, followed by sonication. In vivo Luciferase imaging has been performed on an IVIS Lumina II In vivo Imaging System (PerkinElmer Waltham, Mass., USA) according to the instructions of the manufacturer.

[2] = test system: thyroid hormone (TH) action (3xTRE-TK driven Luciferase reporter); test: Luciferase activity (luciferase assay) in tissues of THAIM line #4 mice; assay type: in vivo, mouse; conditions: for Fold (mean ± SEM), induced/basal Luciferase activity / induced Luciferase activity: line #4, T4 5 ug/mouse/day for 3 days i.p.
Description: (§1) (A, B, C) T4 treatment (5 ug/mouse/day for 3 days; i.p.) in mouse lines #4, 18, and 23. […] All experiments were performed on homozygote males.
(§2) Unilateral denervation of sympathetic nerves innervating the iBAT has been performed as described in (32). Measurement of the activity of type 2 deiodinase was performed according to the American Thyroid Association Guide to investigating thyroid hormone economy and action in rodent and cell models (33)). THAIM #4 mice underwent unilateral denervation of sympathetic nerves innervating the BAT. Luciferase activity assay was performed using our established protocol (34) modified for tissue samples.

[3] = test system: thyroid hormone (TH) action (3xTRE-TK driven Luciferase reporter); test: Luciferase activity (luciferase assay) in tissues of THAIM line #23 mice; assay type: in vivo, mouse; conditions: for Fold (mean ± SEM), induced/basal Luciferase activity / induced Luciferase activity: line #23, T4 5 ug/mouse/day for 3 days i.p.
Description: as §1, §2

[4] = test system: thyroid hormone (TH) action (3xTRE-TK driven Luciferase reporter); test: Luciferase activity (luciferase assay) in tissues of THAIM line #18 mice; assay type: in vivo, mouse
Description: Characterization of the #4, 18 and 23 lines identified thyroid hormone (5 ug of T4/day/mouse for 3 days) induced induction of Luciferase expression in various tissues of homozygote males.
Basal and thyroid hormone induced values and fold changes (induced/basal) of Luciferase activities in tissues of sacrificed animals (Mean±SEM, n=4). P values oft test (basal vs. induced) are provided, * represents statistical significance. (A, B, C) T4 treatment (5 ug/mouse/day for 3 days; i.p.) in mouse lines #4, 18, and 23. Basal activity levels in #18 are higher than other two lines. […] All experiments were performed on homozygote males.
as §2, with “(FIG. 4). Unilateral” for “Unilateral”, “samples. […] This increase was abolished by denervation but TH action was maintained at room temperature (intact vs. denervated). (A). In the denervated samples, this was paralleled by abolished response of D2 activity to cold and maintenance of the basal D2 activity in the denervated lobe at room temperature (B).” for “samples.”

[5] = test system: luciferase mRNA as a readout of TH action; test: Luciferase mRNA by TaqMan qPCR in the pituitary of line #23; assay type: in vivo, mouse; conditions: TaqMan assay
Description: Expression was assessed with TaqMan assay, Luciferase expression level was denominated with GAPDH expression used as housekeeping gene. Mean±SEM (n=5) *** p<0.0001 by t test.
We also studied whether detection of luciferase mRNA can be used to detect as a readout of TH action in the generated transgenic model. […] TaqMan qPCR was performed on a ViiA 7 Real-Time PCR System (Life Technologies) according to the instructions of the manufacturer. In short, reverse transcription was performed with High Capacity cDNA Reverse Transcriptase Kit (Applied Biosystems by Life Technologies) and concentration of the cDNA was determined using the Qubit 2.0 Fluorometer with the Qubit ssDNA Assay Kit (Life Technologies). A custom Luciferase coding probe was used along with a commercially available probe for Glyceraldehyde-3-phosphate dehydrogenase (GAPDH), later used as housekeeping gene.

[6] = test system: TH action in live animals (Luciferase reporter); test: In vivo bioluminescence imaging of Luciferase in live line #4 mice; parameters: species or system mouse; conditions: 1 μg/g BW T3 i.p., luciferin 24 h later
Description: Mean±SEM (n=4) ** p<0.01 **p<0.0001 by t test.
After 15 min, mice were anesthetized with ketamine followed by detection with […] In vivo Imaging System (PerkinElmer Waltham, Mass., USA).

[7] = test system: THAIC construct in HEK293 cells with mouse TRα; test: Luciferase promoter assay in HEK293 cells transfected with THAIC and mouse TRα plasmid; assay type: cell-based, human; conditions: HEK293 transfected with THAIC, SB100 and mouse TRα plasmid; 100 nM T3
Description: The THAIC construct was transfected to the human HEK293 cells along with a pCMV(CAT)T7-SB100 Sleeping Beauty transposon expressing vector and a mouse TRα encoding plasmid. Transfection and cell culturing of HEK293 cells was performed according to our established protocol (36). (FIG. 10)
(B) We also used zeocin-assisted selection and obtained cultures stably expressing Luciferase and generated the HEK293-THAIC cell line stably expressing the TH action indicator construct of the THAM model. The reporter of the cell line is responsive to TH in a TR dependent manner.

[8] = Mandibular salivatory gland (MSG)
[9] = line #18, Cerebellum, T4 5 ug/mouse/day for 3 days i.p.
[10] = line #18, Cortex, T4 5 ug/mouse/day for 3 days i.p.
[11] = line #18, HC, T4 5 ug/mouse/day for 3 days i.p.
[12] = line #18, HT, T4 5 ug/mouse/day for 3 days i.p.
[13] = line #18, MBH, T4 5 ug/mouse/day for 3 days i.p.
[14] = line #18, Pit, T4 5 ug/mouse/day for 3 days i.p.

Cc1cc(OCC(=O)O)cc(C)c1Cc1ccc(O)c(Cc2ccccc2)c1 [GC-24]
Luciferase activity in heart ([1]; i.p. 1.53 nM/g BW, after 24 hours, TRα isoform dominant heart): did not change; also recorded: no significant change
Luciferase activity in liver ([1]; i.p. 1.53 nM/g BW, after 24 hours, TRβ isoform dominant liver): significantly increased

N[C@@H](Cc1cc(I)c(Oc2cc(I)c(O)c(I)c2)c(I)c1)C(=O)O [T4, thyroxine]
Fold (mean ± SEM), induced/basal Luciferase activity ([2]; Bone): 2.2 ± 0.18 Fold
induced Luciferase activity ([2]; Bone): 0.066 RLU/mg protein
Fold (mean ± SEM), induced/basal Luciferase activity ([2]; Cerebellum (CER)): 2.3 ± 0.41 Fold
induced Luciferase activity ([2]; Cerebellum (CER)): 2.162 RLU/mg protein
Fold (mean ± SEM), induced/basal Luciferase activity ([2]; Cortex (CTX)): 1.9 ± 0.30 Fold
induced Luciferase activity ([2]; Cortex (CTX)): 0.359 RLU/mg protein
Fold (mean ± SEM), induced/basal Luciferase activity ([2]; Heart): 8.5 ± 0.31 Fold
induced Luciferase activity ([2]; Heart): 0.030 RLU/mg protein
Fold (mean ± SEM), induced/basal Luciferase activity ([2]; Hippocampus (HC)): 1.9 ± 0.03 Fold
induced Luciferase activity ([2]; Hippocampus (HC)): 0.116 RLU/mg protein
Fold (mean ± SEM), induced/basal Luciferase activity ([2]; Hypothalamus (HT)): 1.3 ± 0.08 Fold
induced Luciferase activity ([2]; Hypothalamus (HT)): 0.488 RLU/mg protein
Fold (mean ± SEM), induced/basal Luciferase activity ([2]; Intestine): 2.1 ± 0.30 Fold
induced Luciferase activity ([2]; Intestine): 9.480 RLU/mg protein
Fold (mean ± SEM), induced/basal Luciferase activity ([2]; Liver): 1.9 ± 0.14 Fold
induced Luciferase activity ([2]; Liver): 0.005 RLU/mg protein
Fold (mean ± SEM), induced/basal Luciferase activity [2, 8]: 7.6 ± 2.60 Fold
induced Luciferase activity [2, 8]: 0.399 RLU/mg protein
Fold (mean ± SEM), induced/basal Luciferase activity ([2]; Mediobasal Hypothalamus (MBH)): 1.8 ± 0.20 Fold
induced Luciferase activity ([2]; Mediobasal Hypothalamus (MBH)): 0.368 RLU/mg protein
Fold (mean ± SEM), induced/basal Luciferase activity ([2]; Muscle): 11.2 ± 5.7 Fold
induced Luciferase activity ([2]; Muscle): 0.276 RLU/mg protein
Fold (mean ± SEM), induced/basal Luciferase activity ([2]; Pituitary (Pit)): 2.3 ± 0.16 Fold
induced Luciferase activity ([2]; Pituitary (Pit)): 0.791 RLU/mg protein
Fold (mean ± SEM), induced/basal Luciferase activity ([2]; Skin): 4.0 ± 0.76 Fold
induced Luciferase activity ([2]; Skin): 2.798 RLU/mg protein
Fold (mean ± SEM), induced/basal Luciferase activity ([2]; Testicle): 0.8 ± 0.06 Fold
induced Luciferase activity ([2]; Testicle): 4.09 RLU/mg protein
Fold (mean ± SEM), induced/basal Luciferase activity ([2]; Thyroid): 1.5 ± 0.07 Fold
induced Luciferase activity ([2]; Thyroid): 0.176 RLU/mg protein
Fold (mean ± SEM), induced/basal Luciferase activity ([2]; iBAT): 64.6 ± 8.1 Fold
induced Luciferase activity ([2]; iBAT): 1.820 RLU/mg protein
induction of Luciferase expression in the BAT ([2]; line #4 homozygote males, 5 ug of T4/day/mouse for 3 days): striking response
Fold (mean ± SEM), induced/basal Luciferase activity ([3]; Bone): 0.9 ± 0.56 Fold
induced Luciferase activity ([3]; Bone): 0.011 RLU/mg protein
Fold (mean ± SEM), induced/basal Luciferase activity ([3]; CER): 1.9 ± 0.28 Fold
induced Luciferase activity ([3]; CER): 0.023 RLU/mg protein
Fold (mean ± SEM), induced/basal Luciferase activity ([3]; CTX): 1.8 ± 0.21 Fold
induced Luciferase activity ([3]; CTX): 0.065 RLU/mg protein
Fold (mean ± SEM), induced/basal Luciferase activity ([3]; HC): 1.1 ± 0.32 Fold
induced Luciferase activity ([3]; HC): 0.040 RLU/mg protein
Fold (mean ± SEM), induced/basal Luciferase activity ([3]; HT): 2.7 ± 1.35 Fold
induced Luciferase activity ([3]; HT): 0.144 RLU/mg protein
Fold (mean ± SEM), induced/basal Luciferase activity ([3]; Heart): 1.0 ± 0.47 Fold
induced Luciferase activity ([3]; Heart): 0.003 RLU/mg protein
Fold (mean ± SEM), induced/basal Luciferase activity ([3]; Liver): 1.7 ± 0.19 Fold
induced Luciferase activity ([3]; Liver): 0.004 RLU/mg protein
Fold (mean ± SEM), induced/basal Luciferase activity ([3]; MBH): 1.7 ± 0.29 Fold
induced Luciferase activity ([3]; MBH): 0.240 RLU/mg protein
Fold (mean ± SEM), induced/basal Luciferase activity ([3]; Muscle): 0.7 ± 0.18 Fold
induced Luciferase activity ([3]; Muscle): 0.003 RLU/mg protein
Fold (mean ± SEM), induced/basal Luciferase activity ([3]; Pit): 8.8 ± 0.62 Fold
induced Luciferase activity ([3]; Pit): 16.926 RLU/mg protein
Fold (mean ± SEM), induced/basal Luciferase activity ([3]; iBAT): 7.2 ± 1.54 Fold
induced Luciferase activity ([3]; iBAT): 0.038 RLU/mg protein
response of Luciferase expression in the pituitary and hypothalamus ([3]; line #23 homozygote males, 5 ug of T4/day/mouse for 3 days): intense response
Fold (mean ± SEM), induced/basal Luciferase activity [4, 9]: 1.8 ± 0.31 Fold
induced Luciferase activity [4, 9]: 0.063 RLU/mg protein
Fold (mean ± SEM), induced/basal Luciferase activity [4, 10]: 1.9 ± 1.18 Fold
induced Luciferase activity [4, 10]: 2.586 RLU/mg protein
Fold (mean ± SEM), induced/basal Luciferase activity [4, 11]: 2.1 ± 0.25 Fold
induced Luciferase activity [4, 11]: 3.756 RLU/mg protein
Fold (mean ± SEM), induced/basal Luciferase activity [4, 12]: 2.8 ± 0.35 Fold
induced Luciferase activity [4, 12]: 1.589 RLU/mg protein
Luciferase activity (basal and induced) ([4]; line #18, Liver (cell also covers Heart, iBAT, Bone, Muscle, MSG, Thyroid, Testicle, Intestine), T4 5 ug/mouse/day for 3 days i.p.): no expression
Fold (mean ± SEM), induced/basal Luciferase activity [4, 13]: 2.2 ± 0.25 Fold
induced Luciferase activity [4, 13]: 0.602 RLU/mg protein
Fold (mean ± SEM), induced/basal Luciferase activity [4, 14]: 8.2 ± 0.36 Fold
induced Luciferase activity [4, 14]: 0.540 RLU/mg protein
response of Luciferase expression in the pituitary ([4]; line #18 homozygote males, 5 ug of T4/day/mouse for 3 days): intense response

N[C@@H](Cc1cc(I)c(Oc2ccc(O)c(I)c2)c(I)c1)C(=O)O [T3, 3,5,3′-triiodothyronine]
induction of luciferase mRNA in the pituitary ([5]; 1 μg/g bw T3 i.p., GAPDH housekeeping): ~50 fold
Luciferase mRNA level in the pituitary ([5]; T3-treatment, denominated with GAPDH): robustly increased
luciferase activity in both tissues (liver and heart) ([1]; T3 administration): significant increase
reporter activity in the BAT and intestine (in vivo imaging) [6]: very intense increase
reporter activity in the mandibular salivary gland (MSG) and skin of the tail and foot pads (in vivo imaging) [6]: up-regulated
induction of Luciferase expression [7]: approximately 4 fold
